Measurements taken from patent US20120088667A1, “SAFENING AGENT” (priority 2009, published 2012).
Read-outs that look alike come from different tables or passages of the source.

Tests used:
Winter Barley cv Saffron = test: Safening of fertilisers, pot trial: phytotoxicity and vigour scores, winter barley; format: in vivo
From the text: (§1) The safening system and the fertilizer were applied either simultaneously or sequentially.
(§2) Sprayed: mid-tillering phase (GS23). Winter Wheat: cv Limerick, sown 4 Jun. […] Sprayed: mid-tillering phase (GS23). Lettuce: cv Set, sown 10 Jul. 2008, at one seed per pot, in John Innes No 1 compost. Date of spraying: 30 July; Dates of measurement: 7 August, 14 August, 28 August. Sprayed: 2 true leaf stage.

PEA cv Ragtime [1] = test: Root nodulation, rooting and safening, pea, compost of low pH (Examples 7.5 and 7.7)
From the text: (§3) The safener/safening system and the fertiliser were applied to the crops either simultaneously or sequentially.
(§4) Co=100% Cobalt Sulphate (20 g per litre and per hectare). FF1=20 g per litre Cobalt Sulphate (as per Co above) plus “Miracle-Gro” at xl recommended rate (applied at 15 g per 2.5 sq metres). Miracle-Gro contains: 24% N, 4% P, 13% K, plus 0.02% B, 0.03% Cu, 0.19% Fe, 0.05% Mn, 0.001% Mo and 0.03% Zn. FF2=20 g per litre Cobalt Sulphate plus Miracle-Gro at ×2 recommended rate. SAF: at least one from class (f) each at <3 g/l, plus at least one from class (c).
PEA—TRIAL 5—cv Ragtime. Scored/Counted+28 Days after Spraying. Sown in Compost of Low pH (5.0-5.5) on 28 Apr. 2008. Spray Date (VC)=26 May, V1 Date=14 June. Scored/Measured on 9 July. […] No inoculum applied.
Sowing details etc as per Example 7.5.

NAVY BEAN cv Mogex = test: Root nodulation and safening, navy bean, compost of normal pH (Example 7.4); conditions: compost of normal pH (6.5)
From the text: as §3, §4
NAVY BEAN cv Mogex. Scored/Counted+28 Days after Spraying. Dates as per Example 7.3 Above, but sown in compost of normal pH (6.5). Each treatment represents the mean value from 12 plants, within four replicates. No inoculum applied.

[2] = test system: Maize cv Sundance (i.e. not Roundup Ready); conditions: no glyphosate
[3] = test system: Oilseed rape cv Excalibur; conditions: for Greenness (0-9) (9 = Deeper Green) + 14 Days / Vigour (0-9) (9 = Most Vigour) + 14 days / Greenness (0-9) + 28 Days / Vigour (0-9) + 28 Days: score 0-9
From the text: Safening systems were applied to crops of oilseed rape and winter treated with various herbicides (Bifenox (with insecticide), Carbetamide, Propaquizafop, Chlorotoluron, Isoproturon, Flumioxazin). The safening system and the herbicide were applied to the crops either simultaneously or sequentially.
Oilseed rape: cv Excalibur, sown 26 Apr. 2008, at two seeds per 9 cm pot, sown in normal pH multi-purpose compost. Date of spraying: 6 June; Dates of measurement/scoring: 13 June, 20 June, 5 July. Winter wheat: cv Alchemy, sown 23 Apr. 2008, at seven seeds per 9 cm pot, sown in normal pH multi-purpose compost. Date of spraying: 24 May; Dates of measurement/scoring: 31 May, 7 June, 21 June. SAF: at least one from class (f) each at <3 g/l, plus at least one from class (c).
Statistical Layout: Randomised Complete Block trials, under glasshouse conditions, United Kingdom.

Winter Wheat cv Limerick = test: Safening of fertilisers, pot trial: phytotoxicity and vigour scores, winter wheat; format: in vivo; conditions: in vivo
From the text: as §1, §2

PEA cv Ragtime [4] = test: Root nodulation and safening, pea, compost of normal pH (Example 7.6); conditions: compost of normal pH (6.5)
From the text: as §3, §4
PEA—TRIAL 7.6—cv Ragtime. Dates as per Example 7.5 above, but sown in compost of normal pH (6.5). […] No inoculum was applied.

[5] = compost of low pH (5.0-5.5), V1, score 0-9
[6] = low pH compost, application at V1, 0-9 scale
[7] = herbicide Bifenox (with insecticide), Table 3.1
[8] = herbicides Carbetamide and Propaquizafop, Table 3.2
[9] = +28 days, herbicide Bifenox (with insecticide), Table 3.1
[10] = +28 days, herbicides Carbetamide and Propaquizafop, Table 3.2

For CC(=O)Nc1ccc(O)cc1 [AC, N-(4-hydroxypheyl)acetamide, reference compound], the “Vigour (0-9) (9 = Most Vigour) + 14 days” value (Winter Barley cv Saffron; 336 h) was 7.0, the “Vigour (0-9) + 28 Days” value (Winter Barley cv Saffron; 672 h) was 8.0 and the “Vigour (0-9) (9 = Most Vigour) + 14 days” value (Winter Barley cv Saffron; Table 1.3, winter barley, general fertilisers, score 0-9, +14 days) was 7.0. For the same molecule, the “Vigour (0-9) + 28 Days” value (Winter Barley cv Saffron; Table 1.3, winter barley, general fertilisers, score 0-9, +28 days) was 8.0, the “Nodules Per Plant (V1)” value (PEA cv Ragtime [1]; compost of low pH (5.0-5.5), V1, +28 days after spraying, no inoculum) was 16.7 and the “Nodulation Score (0-9) (V1)” value (PEA cv Ragtime [1]; [5]) was 5.0. For the same molecule, the “Phyto-Toxicity Score (0-9) (V1)” value (PEA cv Ragtime [1]; [5]) was 5.2, the “Vigour Score (0-9) (V1)” value (PEA cv Ragtime [1]; [5]) was 5.1 and the “Nodules Per Plant (VC)” value (PEA cv Ragtime [1]; compost of low pH (5.0-5.5), VC) was 17.3. The “Nod Score (0-9) (VC)” value (PEA cv Ragtime [1]; compost of low pH (5.0-5.5), VC, score 0-9) was 5.2, the “Nodules Per Plant (V1)” value (PEA cv Ragtime [1]; low pH compost, application at V1 (data from Example 7.5)) was 16.7 and the “Nodulation Score (0-9) (V1)” value (PEA cv Ragtime [1]; [6]) was 5.0. The “Phyto-Toxicity Score (0-9) (V1)” value (PEA cv Ragtime [1]; [6]) was 5.2, the “Rooting Score (0-9) (V1)” value (PEA cv Ragtime [1]; [6]) was 4.2 and the “Nodules Per Plant (V1)” value (NAVY BEAN cv Mogex; V1, +28 days after spraying, no inoculum) was 29.5. The “Nodulation Score (0-9) (V1)” value (NAVY BEAN cv Mogex; V1, score 0-9) was 4.8, the “Phyto-Toxicity Score (0-9) (V1)” value (NAVY BEAN cv Mogex; V1, score 0-9) was 7.0 and the “Vigour Score (0-9) (V1)” value (NAVY BEAN cv Mogex; V1, score 0-9) was 7.0. The “Nodules Per Plant (VC)” value (NAVY BEAN cv Mogex; VC) was 32.1, the “Nod Score (0-9) (VC)” value (NAVY BEAN cv Mogex; VC, score 0-9) was 5.0 and the “Phytotoxicity (0-9) (0 = Dead) + 41 days” value ([2]; scale 0-9, 0=dead, 9=least phytotoxicity, 41 days) was 8.0. The “Vigour (0-9) + 14 Days” value ([2]; scale 0-9, 0=least vigour, 9=most vigour, 14 days) was 8.0, the “Vigour (0-9) + 28 Days” value ([2]; scale 0-9, 0=least vigour, 9=most vigour, 28 days) was 8.0 and the “Vigour (0-9) + 41 Days” value ([2]; scale 0-9, 0=least vigour, 9=most vigour, 41 days) was 8.0. The “Phytotoxicity (0-9) + 28 Days” value ([3]; score 0-9, 0 = dead, +28 days, herbicides Carbetamide and Propaquizafop, Table 3.2) was 8.0, the “Greenness (0-9) (9 = Deeper Green) + 14 Days” value [3, 7] was 8.0 and the “Vigour (0-9) (9 = Most Vigour) + 14 days” value [3, 7] was 8.0. The “Greenness (0-9) (9 = Deeper Green) + 14 Days” value [3, 8] was 8.0, the “Vigour (0-9) (9 = Most Vigour) + 14 days” value [3, 8] was 8.0 and the “Greenness (0-9) + 28 Days” value [3, 9] was 8.0. The “Vigour (0-9) + 28 Days” value [3, 9] was 8.0, the “Greenness (0-9) + 28 Days” value [3, 10] was 8.0 and the “Vigour (0-9) + 28 Days” value [3, 10] was 8.0. For the same molecule, the “Phytotoxicity (0-9) (0 = Dead) + 14 Days” value (Winter Wheat cv Limerick) was 7.0, the “Nodules Per Plant (V1)” value (PEA cv Ragtime [4]; V1, no inoculum) was 15.4 and the “Nodulation Score (0-9) (V1)” value (PEA cv Ragtime [4]; V1, score 0-9) was 4.9. The “Phyto-Toxicity Score (0-9) (V1)” value (PEA cv Ragtime [4]; V1, score 0-9) was 7.0, the “Vigour Score (0-9) (V1)” value (PEA cv Ragtime [4]; V1, score 0-9) was 6.7 and the “Nodules Per Plant (VC)” value (PEA cv Ragtime [4]; VC) was 16.4. The “Nod Score (0-9) (VC)” value (PEA cv Ragtime [4]; VC, score 0-9) was 5.0.
